Key:
[1] = Pharmacokinetic evaluation in rats after intravenous or gavage administration; assay type: in vivo, SD rats; conditions: for AUC(0-inf) / AUC(0-t) / Cmax / Tmax / clearance / half-life / Vd: SD, rat, plasma; for Vd: read-out: Vss
Experimental: The pharmacokinetic evaluation of the compound disclosed herein in rats, dogs and monkeys was carried out in this invention, and animal information as described in Table 1.
The compounds disclosed herein were administered in form of a saline solution containing 5% DMSO, 5% Kolliphor HS 15, 2% (2% HCl) and 88% Saline, or a physiological saline solution containing 10% DMSO, 10% Kolliphor HS 15 and 80% physiological saline to an animal subject. The animals of the intravenous administration group were administered at a dose of 1 mg/kg, and 0.3 mL of vein blood samples were collected at the time points of 0, 0.083, 0.25, 0.5, 1.0, 2.0, 5.0, 7.0 and 24 h after drug administration, then each blood sample was processed to separate plasma by centrifugation at 3000 rpm or 4000 rpm for 10 minutes, and the plasma samples were collected and stored at −20° C. or −70° C. The animals of the gavage administration group were administered at a dose of 2.5 mg/kg, and 0.3 mL of vein blood samples were collected at the time points of 0, 0.083, 0.25, 0.5, 1.0, 2.0, 5.0, 7.0 and 24 h after drug administration, then each blood sample was processed to separate plasma by centrifugation at 3000 rpm or 4000 rpm for 10 minutes, and the plasma samples were collected and stored at −20° C. or −70° C.
The above plasma was analyzed by the LC/MS/MS system.
The LC/MS/MS system for the analysis comprises an Agilent 1200 Series Vacuum Degasser, binary syringe pumps, a well-plate autosampler, a column oven and an Agilent G6430A Triple Quadrupole Mass Spectrometer equiped with an electrospray ionization (ESI) source.
Analysis was performed on waters XBridge C18 (2.1×50 mm, […] column, and 5 μL of sample was injected). Conditions of the analysis comprise: a mobile phase consisting of mobile phase A (water, 2 mM ammonium formate and 0.1% formic acid) and mobile phase B (methanol, 2 mM ammonium formate and 0.1% formic acid). A flow rate of 0.4 mL/min.

5-HT1A receptors = molecular target: T1, 5-HT1A receptors (Homo sapiens, UniProt P08908); assay: h5-HT1A binding affinity test ([3H]8-OH-DPAT, HEK-293 cell homogenates); conditions: 0.3 nM [3H]8-OH-DPAT, 22°C, 60 min, Ki from IC50 by ChengPrusoff equation
T1 construct: host or cells: human HEK-293 cell homogenates
T1 sequence (P08908 1-422): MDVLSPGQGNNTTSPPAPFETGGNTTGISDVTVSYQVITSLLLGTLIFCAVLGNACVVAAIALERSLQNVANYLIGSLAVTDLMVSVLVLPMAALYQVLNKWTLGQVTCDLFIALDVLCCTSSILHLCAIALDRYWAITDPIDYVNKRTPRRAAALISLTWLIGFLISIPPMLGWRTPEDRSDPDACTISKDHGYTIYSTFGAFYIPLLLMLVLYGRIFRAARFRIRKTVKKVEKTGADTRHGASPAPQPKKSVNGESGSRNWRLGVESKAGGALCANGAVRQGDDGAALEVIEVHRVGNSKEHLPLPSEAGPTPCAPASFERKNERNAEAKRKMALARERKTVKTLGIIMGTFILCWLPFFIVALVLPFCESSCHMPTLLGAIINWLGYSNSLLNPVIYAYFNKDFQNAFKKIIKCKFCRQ
Experimental: Human HEK-293 cell homogenates (36 μg of protein) were incubated at 22° C. for 60 minutes with 0.3 nM of [^3H]8-OH-DPAT (Perkin-Elmer) in the absence or presence of the test compound in a buffer solution containing 50 mM of Tris-HCl (pH 7.4), 10 mM of MgSO4, 0.5 mM of EDTA and 2 μg/mL aprotinine.
The non-specific binding value was determined by incubating the same mixture in the presence of 10 μM of 8-OH-DPAT, which was used as the standard reference compound. Competitive curve was obtained by testing data of 8-OH-DPAT in each experiment at several concentrations.
The incubated samples were filtered fastly using a 96-sample cell harvester (Unifilter, Packard) through fiberglass filter membranes (GF/B, Packard) pre-soaked with 0.3% PEI in vacuo, and washed several times with an ice cold 50 mM of Tris-HCl. The filter membranes were dried and the retained radioactivity was measured in a scintillation counter (Topcount, Packard) using a scintillation cocktail (Microscint 0, Packard). The experimental results were expressed as inhibition percentage of radioactive ligand specific binding relative to control groups.
The experiments of combining [^3H]8-OH-DPAT (0.3 nM) with 5-HT1A receptors of human HEK-293 cells were accomplished by using Scintillation Proximity Assay on membrane. The test compounds were required to be tested at least three times in the case of a concentration of more than 6 log, and the data were analyzed by the method of nonlinear regression using Hill equation curve to obtain an IC50 value, and then the IC50 value was calculated by ChengPrusoff equation to obtain a Ki value.

[2] = molecular target: T2, human 5-HT transporters (SERT) (Homo sapiens, UniProt P31645); assay: Affinity to CHO cells-transfected human-derived 5-HT transporter ([3H]imipramine binding); conditions: 2 nM [3H]imipramine, CHO cell membrane homogenate, 22°C, 60 min
T2 construct: expressed in transfected cells; host or cells: CHO cells (membrane homogenate)
T2 sequence (P31645 whole entry): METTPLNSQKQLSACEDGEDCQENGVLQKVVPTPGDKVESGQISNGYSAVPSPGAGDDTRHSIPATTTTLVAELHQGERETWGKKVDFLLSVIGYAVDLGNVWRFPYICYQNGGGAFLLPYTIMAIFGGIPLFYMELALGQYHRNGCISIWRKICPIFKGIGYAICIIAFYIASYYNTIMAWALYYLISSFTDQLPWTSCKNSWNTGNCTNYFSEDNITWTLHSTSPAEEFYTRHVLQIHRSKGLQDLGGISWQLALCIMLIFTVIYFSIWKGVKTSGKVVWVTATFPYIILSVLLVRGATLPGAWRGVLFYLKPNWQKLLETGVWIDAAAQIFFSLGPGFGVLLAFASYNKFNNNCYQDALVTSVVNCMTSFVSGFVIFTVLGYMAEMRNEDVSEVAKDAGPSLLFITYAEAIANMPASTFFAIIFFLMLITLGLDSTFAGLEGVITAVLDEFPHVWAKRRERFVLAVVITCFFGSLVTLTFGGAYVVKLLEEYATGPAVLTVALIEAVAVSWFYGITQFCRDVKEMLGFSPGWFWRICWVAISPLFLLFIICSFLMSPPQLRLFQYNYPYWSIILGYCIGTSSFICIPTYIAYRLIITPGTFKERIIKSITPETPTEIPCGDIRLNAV
Experimental: To a mixed system of cell membrane homogenate protein (12 μg), 2 nM of [^3H] imipramine and buffer solution (50 mM of Tris-HCl (pH 7.4), 120 mM of NaCl, 0.5 mM of KCl and 0.1% BSA) was added or not added the test compound at 22° C., and then the resulting mixture was incubated for 60 minutes.
To the mixed system mentioned above was added 10 μM of imipramine for measuring nonspecific binding values.
After incubation, the samples were filtered rapidly in vacuo with a 96-sample cell harvester (Unifilter, Packard) through glass-fiber filters (GF/B, Packard) pre-soaked with 0.3% PEI and rinsed several times with an ice-cold 50 mM of Tris-HCl and 150 mM of NaCl. The filters were dried and the retained radioactivity was measured by means of a scintillation counter (Topcount, Packard) using a scintillation cocktail (Microscint O, Packard). Each experimental result was expressed as a percentage inhibition of radioactive ligand specific binding relative to control groups.
The standard reference compound was imipramine, and ICso values were calculated by the competitive curve obtained from a series of concentrations of the experimental test. The experimental results of the affinity of the compounds disclosed herein to human 5-HT transporters (SERT) were listed in Table A.

| Compound | AUC(0-inf) ([1]; iv, 1 mg/kg) [ng·h/mL] | AUC(0-t) ([1]; iv, 1 mg/kg) [ng·h/mL] | Cmax ([1]; iv, 1 mg/kg) [ng/mL] | Tmax ([1]; iv, 1 mg/kg) [h] | clearance ([1]; iv, 1 mg/kg) [mL/min/kg] | half-life ([1]; iv, 1 mg/kg) [h] | Vd ([1]; iv, 1 mg/kg) [L/kg] | AUC(0-inf) ([1]; po, 2.5 mg/kg) [ng·h/mL] | AUC(0-t) ([1]; po, 2.5 mg/kg) [ng·h/mL] | Cmax ([1]; po, 2.5 mg/kg) [ng/mL] | Tmax ([1]; po, 2.5 mg/kg) [h] | half-life ([1]; po, 2.5 mg/kg) [h] | F ([1]; po, 2.5 mg/kg) [%] | Ki (5-HT1A receptors) [nM] | IC50 [2] [nM] |
| --- | --- | --- | --- | --- | --- | --- | --- | --- | --- | --- | --- | --- | --- | --- | --- |
| N#Cc1ccc2[nH]cc(CCCCN3CCN(c4ncc(-c5ccc(F)cc5F)cn4)CC3)c2c1 [Example 13, 3-(4-(4-(5-(2,4-difluorophenyl)pyrimidin-2-yl)piperazin-1-yl)butyl)-1H-indole-5-carbonitrile] | 724 | 643 | 330 | 0.083 | 23.8 | 3.9 | 6 | 1160 | 1070 | 152 | 1 | 4.14 | 66.4 | 1.3 | 1.2 |
| N#Cc1ccc2[nH]cc(CCCCN3CCN(c4ncc(-c5ccc(Cl)cc5)cn4)CC3)c2c1 [Example 11, 3-(4-(4-(5-(4-chlorophenyl)pyrimidin-2-yl)piperazin-1-yl)butyl)-1H-indole-5-carbonitrile] | – | – | – | – | – | – | – | – | – | – | – | – | – | 13 | 1.6 |
| N#Cc1ccc2[nH]cc(CCCN3CCN(c4ncc(-c5ccc(Cl)cc5)cn4)CC3)c2c1 [Example 12, 3-(3-(4-(5-(4-chlorophenyl)pyrimidin-2-yl)piperazin-1-yl)propyl)-1H-indole-5-carbonitrile] | 2240 | 1870 | 444 | 0.083 | 7.5 | 9.52 | 5.46 | – | 2950 | 207 | 5.67 | – | 52.62 | 5.5 | 0.32 |
| N#Cc1ccc2[nH]cc(CCCN3CCN(c4ncc(-c5ccc(F)cc5F)cn4)CC3)c2c1 [Example 14, 3-(3-(4-(5-(2,4-difluorophenyl)pyrimidin-2-yl)piperazin-1-yl)propyl)-1H-indole-5-carbonitrile] | 1500 | 1340 | 193 | 0.25 | 11.6 | 7.53 | 6.41 | 3130 | 2790 | 180 | 5 | 7.28 | 83.28 | 0.92 | 0.58 |
| N#Cc1ccc2[nH]cc(CCCN3CCN(c4ncc(-c5cccc(C(N)=O)c5)cn4)CC3)c2c1 [Example 2, 3-(2-(4-(3-(5-cyano-1H-indol-3-yl)propyl)piperazin-1-yl)pyrimidin-5-yl) benzamide] | 753 | 722 | 409 | 0.083 | 22.9 | 1.59 | 2.33 | 767 | 706 | 241 | 0.833 | 1.95 | 39.2 | 1.21 | 0.35 |
| COc1cc(F)ccc1-c1cnc(N2CCN(CCCc3c[nH]c4ccc(C#N)cc34)CC2)nc1 [Example 16, 3-(3-(4-(5-(4-fluoro-2-methoxyphenyl)pyrimidin-2-yl)piperazin-1-yl)propyl)-1H-indole-5-carbonitrile] | – | – | – | – | – | – | – | – | – | – | – | – | – | 7.1 | 0.87 |
| N#Cc1ccc2[nH]cc(CCCCN3CCN(c4ncc(-c5ccc(F)cc5)cn4)CC3)c2c1 [Example 7, 3-(4-(4-(5-(4-fluorophenyl)pyrimidin-2-yl)piperazin-1-yl)butyl)-1H-indole-5-carbonitrile] | 1030 | 1010 | 299 | 0.139 | 16.7 | 4.64 | 5.03 | 2010 | 1960 | 194 | 2.67 | 4.37 | 78.1 | 3.7 | 0.88 |
| N#Cc1ccc2[nH]cc(CCCN3CCN(c4ncc(-c5ccc(F)cc5)cn4)CC3)c2c1 [Example 8, 3-(3-(4-(5-(4-fluorophenyl)pyrimidin-2-yl)piperazin-1-yl)propyl)-1H-indole-5-carbonitrile] | 1250 | 1180 | 195 | 0.139 | 13.4 | 5.85 | 6.01 | 2070 | 2140 | 180 | 4 | 4.85 | 68.48 | 1.9 | 1.3 |
| N#Cc1ccc2[nH]cc(CCCCN3CCN(c4ncc(-c5ccc(C(N)=O)cc5)cn4)CC3)c2c1 [Example 5, 4-(2-(4-(4-(5-cyano-1H-indol-3-yl)butyl)piperazin-1-yl)pyrimidin-5-yl)benzamide] | – | – | – | – | – | – | – | – | – | – | – | – | – | 8.42 | 0.79 |
| COc1ccccc1-c1cnc(N2CCN(CCCc3c[nH]c4ccc(C#N)cc34)CC2)nc1 [Example 10] | – | – | – | – | – | – | – | – | – | – | – | – | – | 3.4 | 0.84 |
| N#Cc1ccc2[nH]cc(CCCN3CCN(c4ncc(-c5ccc(C(N)=O)cc5)cn4)CC3)c2c1 [Example 6, 4-(2-(4-(3-(5-cyano-1H-indol-3-yl)propyl)piperazin-1-yl)pyrimidin-5-yl) benzamide] | – | – | – | – | – | – | – | – | – | – | – | – | – | 4.13 | 0.93 |
| COc1cc(F)ccc1-c1cnc(N2CCN(CCCCc3c[nH]c4ccc(C#N)cc34)CC2)nc1 [Example 15, 3-(4-(4-(5-(4-fluoro-2-methoxyphenyl)pyrimidin-2-yl)piperazin-1-yl)butyl)-1H-indole-5-carbonitrile] | – | – | – | – | – | – | – | – | – | – | – | – | – | 11 | 0.96 |
| COc1ccccc1-c1cnc(N2CCN(CCCCc3c[nH]c4ccc(C#N)cc34)CC2)nc1 [Example 9, 3-(4-(4-(5-(2-methoxyphenyl)pyrimidin-2-yl)piperazin-1-yl)butyl)-1H-indole-5-carbonitrile] | – | – | – | – | – | – | – | – | – | – | – | – | – | 2.7 | 1 |
| N#Cc1ccc2[nH]cc(CCCCN3CCN(c4ncc(-c5cccc(C(N)=O)c5)cn4)CC3)c2c1 [Example 1, 3-(2-(4-(4-(5-cyano-1H-indol-3-yl)butyl)piperazin-1-yl)pyrimidin-5-yl)benzamide] | – | – | – | – | – | – | – | – | – | – | – | – | – | 2.87 | 0.86 |

Source: US10316025B2, “Substituted piperazine compounds and methods of use and use thereof” (SUNSHINE LAKE PHARMA CO., LTD., priority 2015, dated 2019)
